In patent US12642870B2, “Compositions and methods for delivery of nucleic acids” (Poseida Therapeutics, Inc., priority 2020, dated 2026):

Key:
[1] = Physical characterisation of DNA-containing LNPs (DLS, NTA, zeta potential); format: physicochemical; conditions: nano-pB-EF1a-GFP DNA LNPs: compound/DOPE/Cholesterol/DMG-PEG2000 38.0/50.0/10.0/2.0, lipid:DNA 45:1 (w/w)
Protocol: LNP compositions of the present disclosure comprising DNA, a nanoplasmid encoding a piggyBac transposon, wherein the piggyBac transposon comprised GFP under control of the EF1a promoter (herein referred to as the nano-pB-EF1a-GFP), and one of COMPOUNDS 1-8 were prepared as described in Example 3 by combining one of COMPOUNDS 1-8, the phospholipid DOPE, the structural lipid cholesterol (Chol) and 1,2-dimyristoyl-sn-glycerol methoxypolyethylene glycol (DMG-PEG2000) in the following percentages in Table 20: […]

[2] = tested on: Resting T-cells; experiment: LNP delivery of eGFP mRNA to resting T-cells; format: cell-based; conditions: eGFP mRNA LNPs 0.4144:0.4585:0.1:0.027, lipid:nucleic acid 40:1, 0.5 ug mRNA per well, 24 hrs
Protocol: In one experiment, LNPs of the present disclosure comprising one of COMPOUNDS 1-4, DOPE, Cholesterol and DMG-PEG2000 at a molar ratio of 0.4144:0.4585:0.1:0.027 and further comprising Cleancap mRNA encoding eGFP were formed on a NanoAssemblr® (Precision Nanosystems). […] Resting T-cells were treated with varying amounts of the four LNP composition and at 24 hrs, the cells were analyzed to determine the percentage of cells that were viable and that expressed […]. The results of the analysis are shown in Table 12 for a dose of 0.5 ug mRNA per well.

[3] = tested on: HEK293T cells; experiment: In vitro LNP delivery of eGFP mRNA to adherent cells; format: cell-based; conditions: 0.125 μg eGFP mRNA per well, 24 hr, flow cytometry, LNP 41.44/45.85/10.0/2.7, lipid:RNA 40:1
Protocol: HEK293T cells were seeded in 96 well plates and grown to 70% confluence in DMEM+10% FBS] under a 5% CO2 atmosphere at 37° C. A 0.125 μg amount of 5′-CleanCap-eGFP mRNA (TriLink Biotech) formulated with LNP compositions comprising COMPOUNDS 1-4 as prepared in Example 3 at the following percentages in Table 10 was added to each well.
After incubating for 24 hr, cells were imaged for GFP expression with a Leica fluorescence microscope and then detached from 96 well plate to quantitate expression by flow cytometry.

[4] = Average diameter of lipoplex nanoparticles comprising eGFP mRNA (DLS or NTA); format: physicochemical; conditions: lipoplex nanoparticles comprising eGFP mRNA and COMPOUND 1, both methods
Protocol: Lipoplex nanoparticles were formulated using solvent injection method. In brief, a multivalent cationic bolaform amphiphilic lipid (4.0 mg) was dissolved in dimethyl sulfoxide (1 mL) to obtain 4 mg/mL solution. The solution was heated for 15 min at 40° C. to dissolve the lipid. DNA or mRNA (0.040 mg) was diluted with 50 mM Sodium acetate buffer (2 mL, pH 5.5) to obtained 0.02 mg/mL solution. Bolamphiphile lipid solution (0.4 mg, 100 p1) was injected in DNA or mRNA solution (0.04 mg, 2 mL) under constant sonication. The mass ratio of […] was kept constant to 10 for all the bolamphiphile formulation. The sonication was continued for 5 min. The solution was dialyzed (MWCO 30 kDa) for 4-6 hours in PBS (1×, pH 7.4) at room temperature. Sample was concentrated using Amicon centrifuge tube (30 kDa) to get the desired concentration for subsequent in vivo or in vitro use.
Lipoplex nanoparticles were prepared comprising mRNA encoding eGFP using COMPOUND 1 according to the method above and the average diameter of the resulting nanoparticles was determined by DLS or NTA. Both methods yielded average diameters of about 120 nm and the presence of RNA in the nanoparticle was confirmed by gel electrophoresis as described in Example 3.

[5] = tested on: Resting T-cells; experiment: LNP delivery of nano-pB-EF1a-GFP DNA to resting T-cells; format: cell-based; conditions: nano-pB-EF1a-GFP DNA LNPs 0.38:0.5:0.1:0.02, lipid:nucleic acid 45:1, 24 hr
From the text: The experiments described in this example used CD4/CD8 positive T-cells isolated from a leukapheresis product from a healthy donor.

[6] = Agarose gel electrophoresis for nucleic acid incorporation; format: physicochemical; conditions: 1% agarose gel, SYBR Safe, naked mRNA control
Protocol: The LNP compositions were analyzed to verify the presence of mRNA. An aliquot of each of the LNP compositions was loaded on to a 1% agarose gel with a size standard and naked mRNA control, subject to electrophoresis and the presence of mRNA was detected by exposure of ultraviolet light to excite the fluorophore (SYBR Safe) which is complexed with nucleic acid. The free mRNA migrated in the gel in accordance with its molecular weight whereas all of the mRNA-containing LNP compositions remained at the interface of the agarose gel and the well with little to no detectable free mRNA indicating the LNP compositions comprising COMPOUND 1 of Example 1 were capable of incorporating mRNA.

[7] = tested on: HEK293T cells; experiment: In vitro lipoplex nanoparticle delivery of eGFP mRNA to adherent cells; format: cell-based
Protocol: HEK293T cells were seeded in 96 well plates and grown to 70% confluence in [DMEM+10% FBS under a 5% CO2 atmosphere at 37° C. Lipoplex nanoparticles comprising COMPOUND 1 and 0.007, 0.03, 0.125, and 0.50 μg mRNA encoding eGFP were added to the cells. Following incubation with the lipoplex nanoparticles, cells were assessed for GFP expression by epifluorescence microscopy and flow cytometry.

[8] = Physical characterisation of mRNA-containing LNPs (DLS, NTA, zeta potential); format: physicochemical; conditions: Fluc mRNA LNPs: compound/DOPE/Cholesterol/DMG-PEG2000 41.44/45.85/10/2.7, lipid:RNA 40:1 (w/w)
Protocol: A series of ten multi-component LNP compositions of the present disclosure comprising exemplary compounds of Formula (I) was prepared by combining various percentages of an exemplary compound of Formula (I), the phospholipid DOPE, the structural lipid cholesterol (Chol) and 1,2-dimyristoyl-sn-glycerol methoxypolyethylene glycol (DMG-PEG2000; Avanti Polar Lipids, Alabaster, Alabama, USA).
Individual 25 mg/ml stock solutions were prepared by solubilizing the lipids in 200-proof HPLC-grade ethanol and stock solutions were stored at −80° C. until formulated. At the time of formulation, the lipid stock solutions were briefly allowed to equilibrate to room temp and then placed on a hot plate maintained at a temperature range of 50-55° C.
A 1 mg/mi solution of the desired mRNA to be incorporated into the LNPs was added to 150 mM sodium acetate buffer (pH 5.2) to form a stock solution and kept on ice. The lipid phase was mixed with the aqueous m RNA phase inside a microfluidic chip using a NanoAssemblr® instrument (Precision Nanosystems, Vancouver, BC, Canada) according to the manufacturer's instructions to form LNP compositions comprising encapsulated mRNAs.
The resultant mRNA LNP compositions were then transferred to a Repligen Float-A-Lyzer dialysis device—having a molecular weight cut off (MWCO) of 8-10 kDa (Spectrum Chemical Mfg. Corp, CA, USA) and processed by dialysis against phosphate buffered saline (PBS) (dialysate:dialysis buffer volume at least 1:200 v/v), pH 7.4 overnight at 4° C. (or alternatively room temperature for at least 4 hours), to remove the 25% ethanol and achieve a complete buffer exchange. In some experiments the LNPs were further concentrated by in an Amicon® Ultra-4 centrifugal filter unit, MWCO-30 kDa (Millipore Sigma, USA) spun at ˜4100×g in an ultracentrifuge. The mRNA LNPs were then stored at 4° C. until further use.
A series of multicomponent LNP compositions comprising one of COMPOUNDS 1-8 described in Example 1 and the mRNA encoding flue was prepared according to Example 2 and the physical characteristics of the resulting LNPs were analyzed.
In a separate experiment, LNP compositions of the present disclosure comprising mRNA encoding firefly luciferase (hereafter “Fluc”; TriLink) and COMPOUNDS 1-8 were prepared as described in Example 2 by combining one of COMPOUNDS 1-8, the phospholipid DOPE, the structural lipid cholesterol (Chol) and 1,2-dimyristoyl-sn-glycerol methoxypolyethylene glycol (DMG-PEG2000) in the percentages presented in Table 8: […]

Diameter (DLS; nm) [1]: 123.5 nm
Diameter (NTA; nm) [1]: 96.9 nm
PDI [1]: 0.17
Total Particles/ml [1]: 5.76E+11 Particles/ml
Zeta Potential (mV) [1]: 0.67 mV
average diameter of lipoplex nanoparticles [4]: about 120 nm
incorporation of mRNA into the nanoparticle compositions by gel electrophoresis [6]: confirmed
Diameter (DLS; nm) [8]: 155.1 nm
Diameter (NTA; nm) [8]: 126.5 nm
PDI [8]: 0.174
Total Particles/ml [8]: 1.66E+11 Particles/ml
Zeta Potential (mV) [8]: 1.41 mV
SMILES: CC(C)C(CCC(C)C(CCC1CCC(C(=O)NCCCCCCNC(=O)C2CCC(CCC(SCCN(C)C)C(C)CCC(SCCN(C)C)C(C)C)C(SCCN(C)C)C2)CC1SCCN(C)C)SCCN(C)C)SCCN(C)C (stereo not shown) [Compound 1]
% Viable GFP+ [2]: 9.5%
% Viable GFP+ [3]: 23.5%
% Viable GFP+ [5]: 35.2%
% GFP ([7]; lipoplex nanoparticles comprising COMPOUND 1, 0.007 μg mRNA): 0.99%
% GFP ([7]; lipoplex nanoparticles comprising COMPOUND 1, 0.03 μg mRNA): 7.37%
% GFP ([7]; lipoplex nanoparticles comprising COMPOUND 1, 0.125 μg mRNA): 30.1%
% GFP ([7]; lipoplex nanoparticles comprising COMPOUND 1, 0.50 μg mRNA): 56.1%
